Source: PubChem BioAssay (NCI)
Values joined by “and” are separate entries in the source; they are usually repeats but may differ in a detail not shown here. Identical values can stand only once.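 Interpolation was linear, between the two tested concentrations surrounding the appropriate level; five concentrations were tested over 48 hours in 96-well plates. Abbreviation: GI50, concentration required for 50% inhibition of growth. The concentration for full growth arrest is given as TGI.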

Columns and labels:
Assay in all cases: DTP human tumour cell line panel, 48 h
ACHN renal = system: ACHN renal
HOP-92 NSCLC = system: HOP-92 NSCLC
KM12 colon = system: KM12 colon
MALME-3M melanoma = system: MALME-3M melanoma
NCI/ADR-RES ovarian = system: NCI/ADR-RES ovarian
OVCAR-3 ovarian = system: OVCAR-3 ovarian
RPMI-8226 leukemia = system: RPMI-8226 leukemia
SF-539 CNS = system: SF-539 CNS
SNB-19 CNS = system: SNB-19 CNS
SNB-75 CNS = system: SNB-75 CNS

SMILES | GI50 (ACHN renal) | TGI (ACHN renal) | GI50 (HOP-92 NSCLC) | TGI (HOP-92 NSCLC) | GI50 (KM12 colon) | TGI (KM12 colon) | GI50 (MALME-3M melanoma) [µM] | TGI (MALME-3M melanoma) | GI50 (NCI/ADR-RES ovarian) [µM] | TGI (NCI/ADR-RES ovarian) | GI50 (OVCAR-3 ovarian) [µM] | TGI (OVCAR-3 ovarian) | GI50 (RPMI-8226 leukemia) | TGI (RPMI-8226 leukemia) | GI50 (SF-539 CNS) | TGI (SF-539 CNS) | GI50 (SNB-19 CNS) [µM] | TGI (SNB-19 CNS) | GI50 (SNB-75 CNS) | TGI (SNB-75 CNS)
COc1ccc(-c2cc(=O)oc3c4c(ccc23)OCN(Cc2ccc(F)cc2)C4)cc1 | 19.4 µM | 65 µM | 10 µM | 24.2 µM | 17.6 µM | 35.2 µM | 15.4 | 32.7 µM | 17.2 | 42.9 µM | 15.3 | 29.9 µM | 15.4 µM | 37.1 µM | 15.8 µM | 32.5 µM | 15.6 | 36.4 µM | 6.62 µM | 25.3 µM
NC(=S)N/N=C/c1ncccc1O | 0.202 µM | 8.54 µM and 1.38 µM | 6.55 µM | 31.2 µM and 90.7 µM | 4.67 µM | > 1000 µM | 4.47 | > 64.8 µM and 156 µM | 2.21 | 38 µM and 6.56 µM | 2.77 | > 59.3 µM and 123 µM | 5.92 µM and 2.07 µM | > 1000 µM | 0.567 µM and 0.242 µM | 2.69 µM and 1.26 µM | 3.61 | 295 µM | 2.16 µM | > 51.9 µM and 60.6 µM
Cc1cccc(NC2=C(Cl)C(=O)c3nc(C)ccc3C2=O)c1 | 1.24 µM | 2.53 µM | 1.66 µM | 3.27 µM | 2.67 µM | 10.8 µM | 1.65 | 3.07 µM | 1.58 | 4.14 µM | 0.262 | 1.18 µM | 1.48 µM | 5.17 µM | 1.39 µM | 2.75 µM | 1.29 | 10.3 µM | 2.73 µM | 7.33 µM
COc1ccc(/C=C\c2cc(OC)c(OC)c(OC)c2)cc1OCC(=O)O | – | > 100 µM | – | 55.7 µM | – | > 74 µM | – | > 100 µM | – | 5.39 µM | – | 8.25 µM | – | > 100 µM | – | 11.5 µM | – | > 45.6 µM | – | > 58.7 µM
O=[N+]([O-])c1ccccc1N=Nc1c(O)[nH]c2c(Cl)cc(Cl)cc12 | – | 46.8 µM | – | > 68.2 µM | – | > 100 µM | – | > 95.7 µM | – | > 100 µM | – | > 74.7 µM | – | > 100 µM | – | 50.2 µM | – | > 100 µM | – | 25.6 µM
CO[C@@H]1CC[C@]2(C)OC[C@H](C)[C@@H]3C[C@@H](C)[C@@H](OC(C)=O)[C@@H]4[C@H]3[C@@H]2O[C@H]4C[C@@]1(C)O | > 100 µM | > 100 µM | > 100 µM | > 100 µM | > 100 µM | > 100 µM | 63.9 | > 100 µM | > 100 | > 100 µM | 78.1 | > 100 µM | > 100 µM | > 100 µM | > 100 µM | > 100 µM | > 100 | > 100 µM | > 100 µM | > 100 µM
COc1ccc2c(=O)oc3c(OC)cc(CCN(C)C)c4c(=O)oc1c2c34 | 14.8 µM and 5.71 µM | 28.1 µM and 11.8 µM | 21.5 µM and 8.25 µM | 39.6 µM and 15.2 µM | 18 µM and 6.41 µM | 36 µM and 13.4 µM | – | 28.5 µM | – | 23.5 µM | – | 30 µM and 19.8 µM | 18.1 µM and 8.54 µM | 41.3 µM and 19.8 µM | 22.8 µM and 6.89 µM | 37.5 µM and 14 µM | – | 29.2 µM and 21.4 µM | 16.4 µM and 8.17 µM | 31.5 µM and 17.2 µM
CN(Cc1cnc2nc(N)nc(N)c2n1)c1ccc(C(=O)N[C@@H](CCS(=O)(=O)O)C(=O)O)cc1 | – | > 100 µM | – | > 100 µM | – | > 100 µM | – | > 100 µM | – | > 100 µM | – | > 100 µM | – | > 100 µM | – | > 100 µM | – | > 100 µM | 18.2 µM | > 100 µM
COC(=O)/C=C/c1cc(OC(C)=O)c2c(c1)C(C(=O)OC)C(c1ccc(OC(C)=O)c(OC(C)=O)c1)O2 (configuration not stated) | 0.0779 µM | 35.5 µM | 0.35 µM | 24.8 µM | 0.334 µM | 32.1 µM | 1.08 | 56.6 µM | 0.098 | > 100 µM | 0.0374 | 15.8 µM | 0.0574 µM | 5.25 µM | 0.0674 µM | 2.41 µM | 0.131 | > 100 µM | 0.0382 µM | 56.7 µM
CCCCCCn1c(-c2ccc(C(=O)O/N=C(\N)c3ccc4c(c3)OCO4)cc2)nc(-c2ccccc2)c1-c1ccccc1 | 0.387 µM | 1.46 µM | 1.48 µM | 3.3 µM | 3.9 µM | > 100 µM | 1.83 | 4.06 µM | 1.68 | 3.65 µM | 2.48 | 7.87 µM | 1.94 µM | 5.25 µM | 1.72 µM | 3.2 µM | 3.24 | 12.2 µM | 1.7 µM | 4.9 µM
CCCCCCCCSC1=C(Cl)C(=O)C(OC)=C(OC)C1=O | – | 23 µM | – | 35.1 µM | – | 37.7 µM | – | 21.8 µM | – | > 100 µM | – | 23.8 µM | – | > 100 µM | – | 32.7 µM | – | 24.3 µM | – | 46.3 µM
O=C(Nc1nc(-c2c[nH]c3ccccc23)cs1)c1n[nH]c(=O)c2ccccc12 | 8.98 µM | > 69.1 µM | > 30.6 µM | > 100 µM | 1.76 µM | > 100 µM | 18.7 | 80 µM | 6.74 | 78.6 µM | 13.6 | > 83.7 µM | 0.957 µM | 58.2 µM | 1.68 µM | > 57.6 µM | > 34.5 | > 75 µM | 16.2 µM | > 67.8 µM
